Experiments:
c-MYC = assay: RNA-seq, c-MYC transcripts in SUDHL5; format: cell-based, human; conditions: SUDHL5, 1 nM, 2 hours
Method: (§1) Cells were plated at 1M/mL and harvested in TRIsure (Bioline 38033). RNA was extracted using Direct-zol RNA MicroPrep columns (Zymo R2062) treated with DNAseI. cDNA was prepared (Meridian Bioscience BIO-65054) and used for qPCR (Meridian Bioscience BIO-94050) using an AppliedBiosystems QuantStudio 6Pro. Primer sequences were the following:
For sequencing library preparation, rRNA was depleted (NEB E7400) and total RNA prepared into paired-end libraries (NEB E7765) and indexed (NEB E7335). Library size distributions were confirmed using an Agilent Bioanalyzer and High Sensitivity DNA reagents (Agilent 5067) and concentrations determined by qPCR. […]
Raw reads were checked for quality using fastqc (https://www.bioinformatics.babraham.ac.uk/projects/fastqc/) and trimmed from adapters using cutadapt[111] using parameters cutadapt -a […] -b […] --nextseq-trim=20 --minimum-length 1. Transcripts were quantified using kallisto[112] against the human Gencode v33 indexed transcriptome and annotations. […] Re-processed published datasets from the Sequence Read Archive (SRA) were the following: TCIP1 – SRX20228454, SRX20228455, SRX202284546, SRX20228457, SRX20228458, SRX20228459, SRX20228448, SRX20228449, SRX20228450; CDK-TCIP1 – SRX22117221, SRX22117222, SRX22117223, SRX22117224, SRX22117225, SRX22117226, SRX22117227, SRX22117228, SRX22117229).

c-MYC mRNA = assay: RT-qPCR of c-MYC transcripts in SUDHL5; format: cell-based, human; conditions: SUDHL5, 1 nM
Method: as §1
• c-MYC fwd: […]; • c-MYC rev: […]; • GAPDH fwd: […]; • GAPDH rev: […].

## CNC(=O)COc1cc2cc(Nc3nc(N4CCC(C(=O)N5CCN(CCC(=O)N6CCC(n7nc(N8CCCc9cc(-c%10cnn(C)c%10)c(C(F)F)cc98)c8c7CCN(C(=O)NC)C8)CC6)CC5)CC4)ncc3Cl)cc(OC)c2n(C)c1=O [TCIP3]
c-MYC
  c-MYC mRNA log2(fold change): −2.71
c-MYC mRNA
  t1/2 of c-MYC mRNA decrease: 33 min

Source: publication doi:10.1101/2025.03.14.643404, “A Bivalent Molecular Glue Linking Lysine Acetyltransferases to Oncogene-induced Cell Death” (bioRxiv, 2025)
